Assay results published in the supplement of paper PMC9663587.

Experiments:
[1] = compound: CC(=O)c1c(C)c2cnc(Nc3ccc(N4CCN(CCOCCOCCOCCNC(=O)COc5cccc6c5C(=O)N(C5CCC(=O)NC5=O)C6=O)CC4)cn3)nc2n(C2CCCC2)c1=O [BSJ-03-123]; test: increase in dead-cell fraction, 72 h; higher = more death;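 note: breast cancer cell lines in 384-well plates, stained with Hoechst plus LIVE/DEAD far red dye and imaged, cells above an LDR intensity threshold counted dead, Hoechst-negative corpses included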
[2] = compound: C=CC(=O)Nc1ccc(C(=O)Nc2[nH]nc3c2CN(C(=O)N[C@H](CN(C)C)c2ccccc2)C3(C)C)cc1 [YKL-5-124]; test: as above
[3] = compound: CCc1cnn2c(NCc3ccc[n+]([O-])c3)cc(N3CCCC[C@H]3CCO)nc12; test: as above
[4] = compound: CN(C)C/C=C/C(=O)Nc1ccc(C(=O)N2CCC[C@@H](Nc3ncc(Cl)c(-c4c[nH]c5ccccc45)n3)C2)cc1 [THZ531]; test: as above
[5] = compound: CN1CC[C@H](c2c(O)cc(O)c3c(=O)cc(-c4ccccc4Cl)oc23)[C@H](O)C1 [Flavopiridol]; test: as above
[6] = compound: CCOc1cc2ncc(C#N)c(Nc3ccc(OCc4ccccn4)c(Cl)c3)c2cc1NC(=O)/C=C/CN(C)C [Neratinib/HKI272]; test: as above
[7] = compound: CN(C)C/C=C/C(=O)Nc1ccc(C(=O)Nc2cccc(Nc3ncc(Cl)c(-c4c[nH]c5ccccc45)n3)c2)cc1 [THZ1]; test: as above
[8] = compound: CC(=O)c1c(C)c2cnc(Nc3ccc(N4CCNCC4)cn3)nc2n(C2CCCC2)c1=O; test: as above
[9] = compound: T1, CN(C)C(=O)c1cc2cnc(Nc3ccc(N4CCNCC4)cn3)nc2n1C1CCCC1 [LEE011/Ribociclib]; test: as above
[10] = compound: CCN1CCN(Cc2ccc(Nc3ncc(F)c(-c4cc(F)c5nc(C)n(C(C)C)c5c4)n3)nc2)CC1; test: as above
[11] = compound: CS(=O)(=O)N1CCN(Cc2cc3nc(-c4cccc5[nH]ncc45)nc(N4CCOCC4)c3s2)CC1 [Pictilisib/GDC0941]
[12] = compound: CCc1cnn2c(NCc3ccc[n+]([O-])c3)cc(N3CCCC[C@H]3CCO)nc12
[13] = compound: COc1cccc2c1C(=O)c1c(O)c3c(c(O)c1C2=O)C[C@@](O)(C(=O)CO)C[C@@H]3O[C@H]1C[C@H](N)[C@H](O)[C@H](C)O1 [Doxorubicin]
[14] = compound: Cc1cc(Nc2ncc(Cl)c(Nc3ccccc3S(=O)(=O)C(C)C)n2)c(OC(C)C)cc1C1CCNCC1 [Ceritinib/LDK378]
[15] = compound: Cc1nn(C)c(COc2ccc(N3CCN(S(=O)(=O)N(C)C)CC3)cc2)c1-c1cccc2c(CCCOc3cccc4ccccc34)c(C(=O)O)n(CCN3CCOCC3)c12
[16] = compound: T1, LEE011/Ribociclib
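Throughout, for GR50, 72 h: breast cancer and non-malignant breast epithelial cell lines, Deep Dye Drop or Dye Drop imaging, nine half-log doses, GR normalized to time-zero plates and DMSO-only controls.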

Cell Line: SKBR3
- increase in dead-cell fraction ([1]; 0.001 µM): -0.001
- increase in dead-cell fraction ([1]; 0.003162 µM): 0.0008
- increase in dead-cell fraction ([1]; 0.01 µM): 0.0041
- increase in dead-cell fraction ([1]; 0.03162 µM): -0.0049
- increase in dead-cell fraction ([1]; 0.1 µM): 0.0076
- increase in dead-cell fraction ([1]; 0.3162 µM): -0.0004
- increase in dead-cell fraction ([1]; 1 µM): 0.0088
- increase in dead-cell fraction ([1]; 3.162 µM): 0.0136
- increase in dead-cell fraction ([1]; 10 µM): 0.15
- increase in dead-cell fraction ([2]; 0.001 µM): 0.0064
- increase in dead-cell fraction ([2]; 0.003162 µM): 0.0231
- increase in dead-cell fraction ([2]; 0.01 µM): 0.0496
- increase in dead-cell fraction ([2]; 0.03162 µM): 0.0434
- increase in dead-cell fraction ([2]; 0.1 µM): 0.0537
- increase in dead-cell fraction ([2]; 0.3162 µM): 0.0626
- increase in dead-cell fraction ([2]; 1 µM): 0.0336
- increase in dead-cell fraction ([2]; 3.162 µM): 0.0844
- increase in dead-cell fraction ([2]; 10 µM): 0.316
- increase in dead-cell fraction ([3]; 0.0001 µM): 0.0102
- increase in dead-cell fraction ([3]; 0.0003162 µM): 0.0115
- increase in dead-cell fraction ([3]; 0.001 µM): 0.0049
- increase in dead-cell fraction ([3]; 0.003162 µM): 0.011
- increase in dead-cell fraction ([3]; 0.01 µM): 0.303
- increase in dead-cell fraction ([3]; 0.03162 µM): 0.574
- increase in dead-cell fraction ([3]; 0.1 µM): 0.595
- increase in dead-cell fraction ([3]; 0.3162 µM): 0.612
- increase in dead-cell fraction ([3]; 1 µM): 0.583
- increase in dead-cell fraction ([4]; 0.0001 µM): 0.0012
- increase in dead-cell fraction ([4]; 0.0003162 µM): 0.0021
- increase in dead-cell fraction ([4]; 0.001 µM): 0.0015
- increase in dead-cell fraction ([4]; 0.003162 µM): -0.0089
- increase in dead-cell fraction ([4]; 0.01 µM): -0.0005
- increase in dead-cell fraction ([4]; 0.03162 µM): 0.053
- increase in dead-cell fraction ([4]; 0.1 µM): 0.155
- increase in dead-cell fraction ([4]; 0.3162 µM): 0.175
- increase in dead-cell fraction ([4]; 1 µM): 0.338
- increase in dead-cell fraction ([5]; 0.0001 µM): -0.0025
- increase in dead-cell fraction ([5]; 0.0003162 µM): -0.0004
- increase in dead-cell fraction ([5]; 0.001 µM): 0.0053
- increase in dead-cell fraction ([5]; 0.003162 µM): -0.001
- increase in dead-cell fraction ([5]; 0.01 µM): -0.0038
- increase in dead-cell fraction ([5]; 0.03162 µM): -0.0082
- increase in dead-cell fraction ([5]; 0.1 µM): 0.0051
- increase in dead-cell fraction ([5]; 0.3162 µM): 0.0663
- increase in dead-cell fraction ([5]; 1 µM): 0.417
- increase in dead-cell fraction ([6]; 0.0003162 µM): 0.0178
- increase in dead-cell fraction ([6]; 0.001 µM): 0.0381
- increase in dead-cell fraction ([6]; 0.003162 µM): 0.111
- increase in dead-cell fraction ([6]; 0.01 µM): 0.156
- increase in dead-cell fraction ([6]; 0.03162 µM): 0.222
- increase in dead-cell fraction ([6]; 0.1 µM): 0.24
- increase in dead-cell fraction ([6]; 0.3162 µM): 0.303
- increase in dead-cell fraction ([6]; 1 µM): 0.362
- increase in dead-cell fraction ([6]; 3.162 µM): 0.364
- increase in dead-cell fraction ([7]; 0.0001 µM): -0.0092
- increase in dead-cell fraction ([7]; 0.0003162 µM): 0.0042
- increase in dead-cell fraction ([7]; 0.001 µM): 0.0058
- increase in dead-cell fraction ([7]; 0.003162 µM): -0.0046
- increase in dead-cell fraction ([7]; 0.01 µM): -0.0004
- increase in dead-cell fraction ([7]; 0.03162 µM): 0.0505
- increase in dead-cell fraction ([7]; 0.1 µM): 0.237
- increase in dead-cell fraction ([7]; 0.3162 µM): 0.33
- increase in dead-cell fraction ([7]; 1 µM): 0.491
- increase in dead-cell fraction ([8]; 0.0003162 µM): -0.0013
- increase in dead-cell fraction ([8]; 0.001 µM): 0.0036
- increase in dead-cell fraction ([8]; 0.003162 µM): 0.0075
- increase in dead-cell fraction ([8]; 0.01 µM): 0.015
- increase in dead-cell fraction ([8]; 0.03162 µM): 0.0198
- increase in dead-cell fraction ([8]; 0.1 µM): 0.0318
- increase in dead-cell fraction ([8]; 0.3162 µM): 0.0437
- increase in dead-cell fraction ([8]; 1 µM): 0.0364
- increase in dead-cell fraction ([8]; 3.162 µM): 0.0469
- increase in dead-cell fraction ([9]; 0.001 µM): -0.0002
- increase in dead-cell fraction ([9]; 0.003162 µM): -0.0049
- increase in dead-cell fraction ([9]; 0.01 µM): 0.0112
- increase in dead-cell fraction ([9]; 0.03162 µM): 0.0071
- increase in dead-cell fraction ([9]; 0.1 µM): 0.0105
- increase in dead-cell fraction ([9]; 0.3162 µM): 0.0092
- increase in dead-cell fraction ([9]; 1 µM): 0.0206
- increase in dead-cell fraction ([9]; 3.162 µM): 0.0182
- increase in dead-cell fraction ([9]; 10 µM): 0.0119
- increase in dead-cell fraction ([10]; 0.001 µM): 0.0059
- increase in dead-cell fraction ([10]; 0.003162 µM): 0.003
- increase in dead-cell fraction ([10]; 0.01 µM): 0.0233
- increase in dead-cell fraction ([10]; 0.03162 µM): 0.0346
- increase in dead-cell fraction ([10]; 0.1 µM): 0.0399
- increase in dead-cell fraction ([10]; 0.3162 µM): 0.0362
- increase in dead-cell fraction ([10]; 1 µM): 0.0582
- increase in dead-cell fraction ([10]; 3.162 µM): 0.0358
- increase in dead-cell fraction ([10]; 10 µM): 0.0879
- GR50, 72 h [11]: 0.114 µM
- GR50, 72 h [12]: 0.00682 µM
- GR50, 72 h [13]: 0.00673 µM
- GR50, 72 h [14]: 0.985 µM
- GR50, 72 h [15]: > 10 µM
- GR50, 72 h [16]: 6.14 µM
